Measured values taken from patent US20200399264A1, “4-SUBSTITUTED-2-THIAZOLE AMIDES AS ANTIVIRAL AGENTS” (Southern Research Institute, priority 2019, published 2020).

Key:
CHIKV = assay: antiviral activity against CHIKV (VTR and EC90); type: cell-based; details: Chikungunya virus; for log reduction at 10 µM: read-out: VTR @ 10 μM (logs)
Excerpt: As used herein, “EC90,” is intended to refer to the concentration of a substance (e.g., a compound or a drug) that is required for 90% agonism of a biological process, or component of a process, including a protein, subunit, organelle, ribonucleoprotein, etc. In one aspect, an EC90 can refer to the concentration of a substance that is required for 90% agonism in vivo, as further defined elsewhere herein. In a further aspect, […].

[1] = cell cytotoxicity in a cell viability assay (CC50); type: cell-based; details: concentration required for 50% cell survival
Excerpt: As used herein, “CC50,” is intended to refer to the cell cytotoxicity to the concentration of a substance (e.g., a compound or a drug) that is required for 50% cell survival in a cell viability assay in vitro.

Row | Compound | EC90 (CHIKV) [µM] | log reduction at 10 µM (CHIKV) | CC50 [1] [µM]
1 | CSc1ncccc1C(=O)Nc1nc(-c2cc(Nc3ccc(C#N)cc3)cc(N3CCOCC3)c2)cs1 [Compound 47, N-(4-(3-((4-cyanophenyl)amino)-5-morpholinophenyl)thiazol-2-yl)-2-(methylthio)nicotinamide] | 0.1 | 5.14 | > 40
2 | CSc1ncccc1C(=O)Nc1nc(-c2cccc(-c3ccccn3)c2)cs1 [Compound 2, 2-(Methylthio)-N-(4-(3-(pyridin-2-yl)phenyl)thiazol-2-yl)nicotinamide] | 0.7 | 3.97 | > 30
3 | CSc1ncccc1C(=O)Nc1nc(-c2cccc(-c3ccc(F)cn3)c2)cs1 [Compound 15, N-(4-(3-(5-Fluoropyridin-2-yl)phenyl)thiazol-2-yl)-2-(methylthio)nicotinamide] | 0.33 | 5.64 | > 40
4 | CSc1ncccc1C(=O)Nc1nc(-c2cccc(-c3ccc(C(=O)O)cc3)c2)cs1 [Compound 24, 3′-(2-(2-(Methylthio)nicotinamido)thiazol-4-yl)-[1,1′-biphenyl]-4-carboxylic acid] |  | 1.49 | > 40
5 | CC(C)(C)c1ccc(C(=O)Nc2nc(-c3cccc(N4CCNCC4)c3)cs2)cc1 [Compound 30, 4-(Tert-Butyl)-N-(4-(3-(piperazin-1-yl)phenyl)thiazol-2-yl)benzamide] |  | 5.57 | 4.1
6 | CSc1ncccc1C(=O)Nc1nc(-c2cc(C(=O)O)cc(-c3ccc(C#N)cc3)c2)cs1 [Compound 21, 4′-cyano-5-(2-(2-(methylthio)nicotinamido)thiazol-4-yl)-[1,1′-biphenyl]-3-carboxylic Acid] |  | < 1 | > 40
7 | CSc1ncccc1C(=O)Nc1nc(-c2cc(Cl)cc(Nc3ccc(C#N)cc3)c2)cs1 [Compound 49, N-(4-(3-chloro-5-((4-cyanophenyl)amino)phenyl)thiazol-2-yl)-2-(methylthio)nicotinamide] | 0.21 | 5.84 | > 40
8 | CSc1ncccc1C(=O)Nc1nc(-c2cccc(N3CCCC3=O)c2)cs1 [Compound 35, 2-(Methylthio)-N-(4-(3-(2-oxopyrrolidin-1-yl)phenyl)thiazol-2-yl)nicotinamide] |  | < 1 | 39.4
9 | CSc1ncccc1C(=O)Nc1nc(-c2cccc(Nc3ccc(C#N)cc3)c2)cs1 [Compound 37, N-(4-(3-((4-Cyanophenyl)amino)phenyl)thiazol-2-yl)-2-(methylthio)nicotinamide] | 0.45 | 8.68 | > 40
10 | CSc1ncccc1C(=O)Nc1nc(-c2cccc(-c3cccc(C#N)c3)c2)cs1 [Compound 5, N-(4-(3′-Cyano-[1,1′-biphenyl]-3-yl)thiazol-2-yl)-2-(methylthio)nicotinamide] | 0.098 | 5.25 | > 40
11 | CSc1ncccc1C(=O)Nc1nc(-c2cccc(Nc3cccc(C(F)(F)F)c3)c2)cs1 [Compound 40, 2-(Methylthio)-N-(4-(3-((3-(trifluoromethyl)phenyl)amino)phenyl)thiazol-2-yl)nicotinamide] | 3.1 | 5.36 | > 40
12 | COc1cc(Nc2cccc(-c3csc(NC(=O)c4cccnc4SC)n3)c2)ccc1C#N [Compound 46, N-(4-(3-((4-yano-3-methoxyphenyl)amino)phenyl)thiazol-2-yl)-2-(methylthio)nicotinamide] | 0.34 | 5.06 | > 40
13 | CC(C)(C)c1cnc(C(=O)Nc2nc(-c3cccc(-c4ccc(C#N)cc4)c3)cs2)nc1 [Compound 8, 5-(Tert-butyl)-N-(4-(4′-cyano-[1,1′-biphenyl]-3-yl)thiazol-2-yl)pyrimidine-2-carboxamide] |  | < 1 | > 40
14 | CSc1ncccc1C(=O)Nc1nc(-c2cccc(Nc3cccc(C#N)c3)c2)cs1 [Compound 38, N-(4-(3-((3-Cyanophenyl)amino)phenyl)thiazol-2-yl)-2-(methylthio)nicotinamide] | 0.15 | 5.72 | > 40
15 | N#Cc1ccc(-c2cccc(-c3csc(NC(=O)c4cccnc4C(F)(F)F)n3)c2)cc1 [Compound 7, N-(4-(4′-Cyano-[1,1′-biphenyl]-3-yl)thiazol-2-yl)-2-(trifluoromethyl)nicotinamide] |  | 5.09 | 8.07
16 | N#Cc1ccc(-c2cccc(-c3csc(NC(=O)c4cccnc4SC(F)F)n3)c2)cc1 [Compound 6, N-(4-(4′-Cyano-[1,1′-biphenyl]-3-yl)thiazol-2-yl)-2-((difluoromethyl)thio)nicotinamide] |  | 7.6 | > 30
17 | N#Cc1ccc(Nc2cccc(-c3csc(NC(=O)C45CC(C#N)(C4)C5)n3)c2)cc1 [Compound 52, 3-cyano-N-(4-(3-((4-cyanophenyl)amino)phenyl)thiazol-2-yl)bicyclo[1.1.1]pentane-1-carboxamide] | 1.5 | 5.58 | 9
18 | COC1CCC(C(=O)Nc2nc(-c3cccc(Nc4ccc(C#N)cc4)c3)cs2)CC1 (stereo not shown) [Compound 50, N-(4-(3-((4-cyanophenyl)amino)phenyl)thiazol-2-yl)-4-methoxycyclohexane-1-carboxamide] | 0.1 | 4.53 | 12.4
19 | CSc1ncccc1C(=O)Nc1nc(-c2cccc(-c3ccc(F)nc3)c2)cs1 [Compound 16, N-(4-(3-(6-Fluoropyridin-3-yl)phenyl)thiazol-2-yl)-2-(methylthio)nicotinamide] | 0.33 | 6.09 | > 30
20 | N#Cc1ccc(-c2cccc(-c3csc(NC(=O)C4CCNCC4)n3)c2)cc1 [Compound 11, N-(4-(4′-Cyano-[1,1′-biphenyl]-3-yl)thiazol-2-yl)piperidine-4-carboxamide] |  | 8.5 | > 30
